Reference: publication PMC11713119, “Optimizing metabolic stability of phosphodiesterase 5 inhibitors: Discovery of a potent N‐(pyridin‐3‐ylmethyl)quinoline derivative targeting synaptic plasticity” (Alzheimer's & Dementia, 2025)

Molecular target: T1, Phosphodiesterase 5 (PDE5) (Homo sapiens, UniProt O76074)
T1 construct: gene PDE5A
Assay: PDE5 inhibition IC50 (assay details not given)
Assay type: biochemical

Row | IC50 | Structure (SMILES)
1 | 20 nM | COc1ccc(CNc2c(CO)cnc3c(C4CC4)cc(C#N)cc23)cn1 [4b, 8‐cyclopropyl‐3‐(hydroxymethyl)‐4‐(((6‐methoxypyridin‐3‐yl)methyl)amino)quinoline‐6‐carbonitrile]
2 | 0.27 nM | COc1ccc(CNc2c(CO)cnc3c(C4CC4)cc(C#N)cc23)cc1Cl [7a, 4‐((3‐chloro‐4‐methoxybenzyl)amino)‐8‐cyclopropyl‐3‐(hydroxymethyl)quinoline‐6‐carbonitrile]
